Laboratory results published in patent publication US20080234318A1, “Chemical Compounds” (priority 2005, published 2008).

Tested on: HIV-1
Assay: HOS HIV-1 infectivity assay
Format: cell-based
Conditions: Human immunodeficiency virus 1, BAL / IIIB, HOS cells expressing hCXCR4/hCCR5/hCD4/pHIV-LTR-luciferase, virus strain (Ba-L or IIIB) not given, read-out: Activity Level
Protocol: Compounds were profiled against two HIV-1 viruses, the M-tropic (CCR5 utilizing) Ba-L strain and the T-tropic (CXCR4 utilizing) IIIB strain. Both viruses were propagated in human peripheral blood lymphocytes. Compounds were tested for there ability to block infection of the HOS cell line (expressing hCXCR4/hCCR5/hCD4/pHIV-LTR-luciferase) by either HIV-1 Ba-L or HIV-1 IIIB. Compound cytotoxicity was also examined in the absence of virus addition.
HOS cells (expressing hCXCR4/hCCR5/hCD4/pHIV-LTR-luciferase) were harvested and diluted in Dulbeccos modified Eagles media supplemented with 2% FCS and non-essential amino acid to a concentration of 60,000 cells/ml. The cells were plated into 96-well plates (100 ul per well) and the plates were placed in a tissue culture incubator (37° C.; 5% CO2/95% air) for a period of 24h.
Subsequently, 50 ul of the desired drug solution (4 times the final concentration) was added to each well and the plates were returned to the tissue culture incubator (37° C.; 5% CO2/95% air) for 1h. Following this incubation 50 ul of diluted virus was added to each well (approximately 2 million RLU per well of virus). The plates were returned to the tissue culture incubator (37° C.; 5% CO2/95% air) and were incubated for a further 96h.
Following this incubation the endpoint for the virally infected cultures was quantified following addition of Steady-Glo Luciferase assay system reagent (Promega, Madison, Wis.). Cell viability or non-infected cultures was measured using a CellTiter-Glo luminescent cell viability assay system (Promega, Madison, Wis.). All luminescent readouts are performed on a Topcount luminescence detector (Packard, Meridien, Conn.).

Q: For `CN1CCN(c2cccc3nc(CN(C)[C@H]4CCCc5cccnc54)c(CNS(=O)(=O)c4ccccc4)n23)CC1` [Example 37, N-{[5-(4-Methyl-1-piperazinyl)-2-({methyl[(8S)-5,6,7,8-tetrahydro-8-quinolinyl]amino}methyl)imidazo[1,2-a]pyridin-3-yl]methyl}benzenesulfonamide], which IC50 is on record?
A: < 100 nM

Q: `CN1CCN(c2cccc3nc(CN(C)[C@H]4CCCc5cccnc54)c(CNS(=O)(=O)Cc4ccccc4)n23)CC1` [Example 38, N-{[5-(4-Methyl-1-piperazinyl)-2-({methyl[(8S)-5,6,7,8-tetrahydro-8-quinolinyl]amino}methyl)imidazo[1,2-a]pyridin-3-yl]methyl}-1-phenylmethanesulfonamide] was tested. Which IC50 did it give?
A: < 100 nM

Q: `CCNC(=O)NCc1c(CN(C)[C@H]2CCCc3cccnc32)nc2cccc(N3CCN(C)CC3)n12` [Example 39, N-Ethyl-N′-{[5-(4-methyl-1-piperazinyl)-2-({methyl[(8S)-5,6,7,8-tetrahydro-8-quinolinyl]amino}methyl)imidazo[1,2-a]pyridin-3-yl]methyl}urea] was tested. Which IC50 did it give?
A: < 100 nM

Q: For `CC(C)NC(=O)NCc1c(CN(C)[C@H]2CCCc3cccnc32)nc2cccc(N3CCN(C)CC3)n12` [Example 40, N-(1-Methylethyl)-N′-{[5-(4-methyl-1-piperazinyl)-2-({methyl[(8S)-5,6,7,8-tetrahydro-8-quinolinyl]amino}methyl)imidazo[1,2-a]pyridin-3-yl]methyl}urea], which IC50 is on record?
A: < 100 nM

Q: How did the IC50 turn out when `CN1CCN(c2cccc3nc(CN(C)[C@H]4CCCc5cccnc54)c(CNC(=O)Nc4ccccc4)n23)CC1` [Example 41, N-{[5-(4-Methyl-1-piperazinyl)-2-({methyl[(8S)-5,6,7,8-tetrahydro-8-quinolinyl]amino}methyl)imidazo[1,2-a]pyridin-3-yl]methyl}-N′-phenylurea] was run?
A: < 100 nM

Q: How did the IC50 turn out when `CN1CCN(c2cccc3nc(CN(C)[C@H]4CCCc5cccnc54)c(CNC(=O)Nc4ccc(N(C)C)cc4)n23)CC1` [Example 42, N-[4-(Dimethylamino)phenyl]-N′-{[5-(4-methyl-1-piperazinyl)-2-({methyl[(8S)-5,6,7,8-tetrahydro-8-quinolinyl]amino}methyl)imidazo[1,2-a]pyridin-3-yl]methyl}urea] was run?
A: < 100 nM

Q: With `COc1ccc(NC(=O)NCc2c(CN(C)[C@H]3CCCc4cccnc43)nc3cccc(N4CCN(C)CC4)n23)cc1` [Example 43, N-[4-(Methyloxy)phenyl]-N′-{[5-(4-methyl-1-piperazinyl)-2-({methyl[(8S)-5,6,7,8-tetrahydro-8-quinolinyl]amino}methyl)imidazo[1,2-a]pyridin-3-yl]methyl}urea] as the compound, how does the IC50 read?
A: < 100 nM

Q: `CN1CCN(c2cccc3nc(CN(C)[C@H]4CCCc5cccnc54)c(CNC(N)=O)n23)CC1` [Example 44, N-{[5-(4-Methyl-1-piperazinyl)-2-({methyl[(8S)-5,6,7,8-tetrahydro-8-quinolinyl]amino}methyl)imidazo[1,2-a]pyridin-3-yl]methyl}urea] was tested. Which IC50 did it give?
A: < 100 nM
